From the supplement of paper PMC11616607

Key:
Experiment in all cases: drug sensitivity score (DSS) from 5-point dose-response viability curve (DSS (area-under-curve based score)); higher = more sensitive (stronger growth inhibition or killing); extreme values may be limits of the assay
Settings in all cases: exposure time: 72 h; concentration range: 5 concentrations over 10,000-fold range
OV90 = system: OV90
How it was run: (§1)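 Drug sensitivity scores were calculated in Breeze software for each cell line and drug pair; higher scores indicate more sensitivity. A score of zero indicates no response. The underlying assay used 384-well plates: drugs were placed by an Echo 550 acoustic dispenser at five concentrations spanning a 10,000-fold range, 1,500 ovarian cancer or normal ovarian cells were added per well, and cells were kept 3 days at 37°C, 5% CO2. Viability was then measured with CellTiter-Glo luminescence on a PHERAstar FS.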

HOSE2C = system: HOSE2C
How it was run: as §1

HOSE1C = system: HOSE1C
How it was run: as §1

Kuramochi = system: Kuramochi
How it was run: as §1

OVCAR8 = system: OVCAR8
How it was run: as §1

COV318 = system: COV318
How it was run: as §1

JHOS2 = system: JHOS2
How it was run: as §1

Ovsaho = system: Ovsaho
How it was run: as §1

COV362 = system: COV362
How it was run: as §1

OVCAR4 = system: OVCAR4
How it was run: as §1

OVCAR5 = system: OVCAR5
How it was run: as §1

CAOV3 = system: CAOV3
How it was run: as §1

SMILES | drug sensitivity score (OV90) | drug sensitivity score (HOSE2C) | drug sensitivity score (HOSE1C) | drug sensitivity score (Kuramochi) | drug sensitivity score (OVCAR8) | drug sensitivity score (COV318) | drug sensitivity score (JHOS2) | drug sensitivity score (Ovsaho) | drug sensitivity score (COV362) | drug sensitivity score (OVCAR4) | drug sensitivity score (OVCAR5) | drug sensitivity score (CAOV3)
Cc1ccc(C(=O)Nc2ccc(CN3CCN(C)CC3)c(C(F)(F)F)c2)cc1C#Cc1cnc2cccnn12 [Ponatinib] | 6.9 | 8.5 | 3.3 | 9.3 | 3.3 | 5.7 | 3.6 | 7.6 | 4.9 | 5.7 | 5.5 | 2.4
C=CC(=O)N1CCC(Oc2cc3c(Nc4ccc(Cl)c(Cl)c4F)ncnc3cc2OC)CC1 [Poziotinib] | 0 | 0 | 0.4 | 1.9 | 0 | 0 | 0.4 | 4.5 | 0 | 1.3 | 3.3 | 13.1
CCCCc1nc2cc(/C=C/C(=O)NO)ccc2n1CCN(CC)CC [Pracinostat] | 14.6 | 18.5 | 22.2 | 13.5 | 19.5 | 10 | 13 | 10.5 | 5.1 | 10.4 | 20.9 | 13.2
CC[C@H](C)C(=O)O[C@H]1C[C@H](O)C=C2C=C[C@H](C)[C@H](CC[C@@H](O)C[C@@H](O)CC(=O)O)[C@H]21 [Pravastatin] | 0 | 0 | 0 | 0 | 0 | 0 | 0 | 0 | 0 | 0 | 0 | 0
C[C@]12C=CC(=O)C=C1CC[C@@H]1[C@@H]2[C@@H](O)C[C@@]2(C)[C@H]1CC[C@]2(O)C(=O)CO [Prednisolone] | 0.1 | 3.3 | 0 | 0 | 0.1 | 1.1 | 0.1 | 0 | 0 | 0 | 0 | 0
COc1cccc(OCCCN)c1-c1cc(Nc2cnc(C#N)cn2)n[nH]1 [Prexasertib] | 16.7 | 36.7 | 40.9 | 19.8 | 30.1 | 22.9 | 22.4 | 16.1 | 16.8 | 21.8 | 25 | 24.8
Cn1cc(CNCC2CCN(c3ncc(C(=O)NO)cn3)CC2)c2ccccc21 [Quisinostat] | 14.6 | 19 | 22.9 | 9.2 | 18.6 | 4.7 | 8.1 | 9 | 4.5 | 8 | 19.2 | 11.5
CC(C)(C)c1cc(NC(=O)Nc2ccc(-c3cn4c(n3)sc3cc(OCCN5CCOCC5)ccc34)cc2)no1 [Quizartinib] | 0.2 | 0.8 | 0 | 0 | 2.2 | 0 | 0 | 0.2 | 0 | 1.5 | 0.8 | 0
Nc1cc(F)ccc1NC(=O)/C=C/c1cnn(C/C=C/c2ccccc2)c1 [RGFP966] | 1.9 | 2.4 | 1.1 | 0.4 | 2.3 | 0.6 | 0.1 | 0 | 0 | 2.4 | 3.3 | 0.1
COC(=O)c1ccc([C@H]2c3[nH]c4ccccc4c3C[C@H](C(=O)OC)N2C(=O)CCl)cc1 [RSL3] | 0 | 25.4 | 14.5 | 0 | 0 | 0 | 0 | 0 | 0 | 0 | 3.1 | 0
Cc1cnc(NC(=O)Nc2cc(Br)c(C)cc2OC[C@@H]2CNCCO2)cn1 [Rabusertib] | 1.6 | 2 | 1.8 | 0.1 | 0 | 0.2 | 0 | 0 | 0.2 | 1 | 0.1 | 0.1
Cc1cn(-c2cc(NC(=O)c3ccc(C)c(Nc4nccc(-c5cnccn5)n4)c3)cc(C(F)(F)F)c2)cn1 [Radotinib] | 1.3 | 0 | 0 | 0.9 | 0 | 0 | 0 | 0 | 0 | 0 | 0 | 0
CC(C)(C)Cn1c(N)nc2ccc(-c3[nH]c(C(C)(C)C)nc3-c3ccc(F)cc3)nc21 [Ralimetinib] | 4.1 | 0.5 | 1.1 | 6.6 | 3.1 | 2.6 | 1.8 | 1.8 | 1.4 | 1.1 | 4.3 | 2.9
O=C(c1ccc(OCCN2CCCCC2)cc1)c1c(-c2ccc(O)cc2)sc2cc(O)ccc12 [Raloxifene] | 1.9 | 0 | 0 | 2.6 | 1.5 | 1.8 | 1 | 3.3 | 1.2 | 0.3 | 2 | 0.5
Cc1nc(=O)c2cc(CN(C)c3ccc(C(=O)N[C@@H](CCC(=O)O)C(=O)O)s3)ccc2[nH]1 [Raltitrexed] | 6.1 | 20.3 | 21.8 | 9.1 | 18.4 | 3 | 4.2 | 5.7 | 6 | 6.4 | 6.3 | 10.7
